This is an account of results in patent publication US20200190073A1, “SUBSTITUTED SUCCINIMIDE DERIVATIVES AS PESTICIDES” (BASF SE, priority 2017, published 2020).

Like-named read-outs stand apart in the source and are kept apart here.

What all share (assay type): in vivo
The subject of assay [1] is Neotropical Brown Stink Bug (Euschistus heros). Kind of assay: B.12 Neotropical brown stink bug, dipped pole bean. As to conditions: 120 h, 500 ppm, adults, 5 days, read-out: mortality in comparison with untreated controls. The protocol:
B.12 Neotropical Brown Stink Bug (Euschistus heros)
For evaluating control of Euschistus heros through contact the test unit consisted of 100 ml disposable plastic beakers with transparent lids.
The compounds were formulated using a solution containing 50% water and 50% acetone. 50 ml of different concentrations of formulated compounds or mixtures were prepared in a glass petri dish and used for dipping three 6 cm sections of fresh pole bean. Each treatment was replicated eight times.
After application, the pole bean sections were air-dried and 5 adult E. heros placed in each beaker. The E. heros were then allowed to suck on the treated pole bean sections and incubated at 23±1° C., 50±5% RH for 5 days. E. heros mortality was then visually assessed.

Assay [2] deals with Rice Green Leafhopper (Nephotettix virescens). Kind of assay: B.8 Rice green leafhopper, sprayed rice seedlings. As to conditions: 300 ppm, adults on sprayed rice seedlings, after 72 hours, read-out: mortality in comparison with untreated controls. How it is done:
B.8 Rice Green Leafhopper (Nephotettix virescens)
Rice seedlings were cleaned and washed 24 hours before spraying. The active compounds were formulated in 1:1 acetone:water (vol:vol), and 0.01% vol/vol surfactant (Kinetic HV) was added. Potted rice seedlings were sprayed with 5-6 ml test solution, air dried, covered with Mylar cages and inoculated with 10 adults. Treated rice plants were kept at about 28-29° C. and relative humidity of about 50-60%. Percent mortality was recorded after 72 hours.

Assay [3] deals with Green Soldier Stink Bug (Nezara viridula). Kind of assay: B.11 Green soldier stink bug, sprayed soybean pods. Particulars: 120 h, 300 ppm, late 3rd instar, after 5 days, read-out: mortality in comparison with untreated controls. How it is done: B.11 Green Soldier Stink Bug (Nezara viridula)
The active compound was dissolved at the desired concentration in a mixture of 1:1 (vol:vol) distilled water:acetone. Surfactant (Kinetic HV) was added at a rate of 0.01% (vol/vol). The test solution was prepared at the day of use. Soybean pods were placed in glass Petri dishes lined with moist filter paper and inoculated with ten late 3rd instar N. viridula. Using a hand atomizer, approximately 2 ml solution is sprayed into each Petri dish. Assay arenas were kept at about 25° C. Percent mortality was recorded after 5 days.

The test system of assay [4] is Boll Weevil (Anthonomus grandis). Kind of assay: B.5 Boll weevil, insect diet with eggs. Particulars: 120 h, 2500 ppm, egg and larval mortality, 5 days, read-out: mortality in comparison with untreated controls. How it is done: B.5 Boll Weevil (Anthonomus grandis)
For evaluating control of boll weevil (Anthonomus grandis) the test unit consisted of 96-well-microtiter plates containing an insect diet and 5-10 A. grandis eggs.
The compounds were formulated using a solution containing 75% v/v water and 25% v/v DMSO. Different concentrations of formulated compounds were sprayed onto the insect diet at 5 μl, using a custom built micro atomizer, at two replications.
After application, microtiter plates were incubated at about 25±1° C. and about 75±5% relative humidity for 5 days. Egg and larval mortality was then visually assessed.

The test system of assay [5] is Vetch Aphid (Megoura viciae). Kind of assay: B.3 Vetch aphid, broad bean leaf disks. As to conditions: foliar, 120 h, 2500 ppm, sprayed leaf disks, 5 days, read-out: mortality in comparison with untreated controls. The protocol:
B.3 Vetch Aphid (Megoura viciae)
For evaluating control of vetch aphid (Megoura viciae) through contact or systemic means the test unit consisted of 24-well-microtiter plates containing broad bean leaf disks.
The compounds were formulated using a solution containing 75% v/v water and 25% v/v DMSO. Different concentrations of formulated compounds were sprayed onto the leaf disks at 2.5 μl, using a custom built micro atomizer, at two replications.
After application, the leaf disks were air-dried and 5-8 adult aphids placed on the leaf disks inside the microtiter plate wells. The aphids were then allowed to suck on the treated leaf disks and incubated at about 23±1° C. and about 50±5% relative humidity for 5 days. Aphid mortality and fecundity was then visually assessed.

Assay [6] concerns Tobacco Budworm (Heliothis virescens). Kind of assay: B.4 Tobacco budworm, insect diet with eggs. Particulars: 120 h, 2500 ppm, egg and larval mortality, 5 days, read-out: mortality in comparison with untreated controls. The protocol:
B.4 Tobacco Budworm (Heliothis virescens)
For evaluating control of tobacco budworm (Heliothis virescens) the test unit consisted of 96-well-microtiter plates containing an insect diet and 15-25 H. virescens eggs.
The compounds were formulated using a solution containing 75% v/v water and 25% v/v DMSO. Different concentrations of formulated compounds were sprayed onto the insect diet at 10 μl, using a custom built micro atomizer, at two replications.
After application, microtiter plates were incubated at about 28±1° C. and about 80±5% relative humidity for 5 days. Egg and larval mortality was then visually assessed.

For assay [7], the system named is Orchid Thrips (Dichromothrips Corbetti). Kind of assay: B.7 Orchid thrips, floral immersion. Particulars: 300 ppm; adult thrips; 72 hours after treatment; read-out: mortality in comparison with untreated controls. The protocol:
B.7 Orchid Thrips (Dichromothrips Corbetti)
Dichromothrips corbetti adults used for bioassay were obtained from a colony maintained continuously under laboratory conditions. For testing purposes, the test compound is diluted in a 1:1 mixture of acetone:water (vol:vol), plus Kinetic HV at a rate of 0.01% v/v.
Thrips potency of each compound was evaluated by using a floral-immersion technique. All petals of individual, intact orchid flowers were dipped into treatment solution and allowed to dry in Petri dishes. Treated petals were placed into individual re-sealable plastic along with about 20 adult thrips. All test arenas were held under continuous light and a temperature of about 28° C. for duration of the assay. After 3 days, the numbers of live thrips were counted on each petal. The percent mortality was recorded 72 hours after treatment.

Assay [8] has as its system Diamond back moth (Plutella xylostella). Kind of assay: B.1 Diamond back moth, cabbage leaf dip. Particulars: foliar, 300 ppm, cabbage leaf dip, 3rd instar larvae, 72 hours after treatment, read-out: mortality in comparison with untreated controls. How it is done: B.1 Diamond back moth (Plutella xylostella)
(§1) The active compound was dissolved at the desired concentration in a mixture of 1:1 (vol:vol) distilled water:acetone. Surfactant (Kinetic HV) was added at a rate of 0.01% (vol/vol). The test solution was prepared at the day of use.
Leaves of cabbage were dipped in test solution and air-dried. Treated leaves were placed in petri dishes lined with moist filter paper and inoculated with ten 3rd instar larvae. Mortality was recorded 72 hours after treatment. Feeding damages were also recorded using a scale of 0-100%.

Assay [9] has as its system Green Peach Aphid (Myzus persicae). Kind of assay: B.2 Green peach aphid, artificial diet, systemic. As to conditions: 72 h, 2500 ppm, adult aphids on treated diet, 3 days, read-out: mortality in comparison with untreated controls. From the text:
B.2 Green Peach Aphid (Myzus persicae)
For evaluating control of green peach aphid (Myzus persicae) through systemic means the test unit consisted of 96-well-microtiter plates containing liquid artificial diet under an artificial mem brane.
The compounds were formulated using a solution containing 75% v/v water and 25% v/v DMSO. Different concentrations of formulated compounds were pipetted into the aphid diet, using a custom built pipetter, at two replications.
After application, 5-8 adult aphids were placed on the artificial membrane inside the microtiter plate wells. The aphids were then allowed to suck on the treated aphid diet and incubated at about 23±1° C. and about 50±5% relative humidity for 3 days. Aphid mortality and fecundity was then visually assessed.

The test system of assay [10] is Red Spider Mite (Tetranychus kanzawai). Kind of assay: B.9 Red spider mite, sprayed cowpea beans. As to conditions: 300 ppm, 72 hours after treatment, read-out: mortality in comparison with untreated controls. How it is done:
B.9 Red Spider Mite (Tetranychus kanzawai)
The active compound was dissolved at the desired concentration in a mixture of 1:1 (vol:vol) distilled water:acetone. Add surfactant (Kinetic HV) was added at a rate of 0.01% (vol/vol).The test solution was prepared at the day of use.
Potted cowpea beans of 4-5 days of age were cleaned with tap water and sprayed with 1-2 ml of the test solution using air driven hand atomizer. The treated plants were allowed to air dry and afterwards inoculated with 30 or more mites by clipping a cassava leaf section from rearing population. Treated plants were placed inside a holding room at about 25-27° C. and about 50-60% relative humidity. Percent mortality was assessed 72 hours after treatment.

In assay [11] the test system is Brown Marmorated Stink Bug (Halyomorpha halys). Kind of assay: B.13 Brown marmorated stink bug, spray. As to conditions: 120 h, 100 ppm, adults, after 5 days, read-out: mortality in comparison with untreated controls. How it is done:
B.13 Brown Marmorated Stink Bug (Halyomorpha halys)
as §1
Row peanuts and soybean seeds were placed into microwavable plastic cups and inoculated with five adult stage H. halys. Using a hand atomizer, approximately 1 ml solution is sprayed into each cup, insects and food present. A water source was provided (cotton wick with water) Each treatment is replicated 4-fold. Assay arenas are kept at about 25° C. Percent mortality was recorded after 5 days.

In assay [12] the test system is Diamond back moth (Plutella xylostella). Kind of assay: CE.6 Diamond back moth, contact activity, comparative test. As to conditions: read-out: % mortality in comparison to untreated controls. The protocol:
(§2) The tables show % mortality in comparison to untreated controls.
CE.6 Diamond Back Moth (Plutella xylostella)
Ten third-instar larvae are sprayed with 1 ml test solution and introduce to untreated leaves held petri dished lined with moist filter paper. Mortality is recorded 24, 72, and 120 hours after treatment.

The test system of assay [13] is Rice Green Leafhopper (Nephotettix virescens). Kind of assay: CE.5 Rice green leafhopper, comparative test. As to conditions: 72 h, read-out: % mortality in comparison to untreated controls.
Assay [14] relates to Silverleaf Whitefly (Bemisia argentifolii). Kind of assay: CE.4 Silverleaf whitefly, comparative test. As to conditions: 72 h, read-out: % mortality in comparison to untreated controls. The protocol:
as §2
CE.4 Silverleaf Whitefly (Bemisia argentifolii)
The active compounds were formulated in 50:50 acetone:water (vol:vol) and 100 ppm Kinetica™ surfactant.
Selected cotton plants were grown to the cotyledon state (one plant per pot). The cotyledons were dipped into the test solution to provide complete coverage of the foliage and placed in a well-vented area to dry. Each pot with treated seedling was placed in a plastic cup and 10 to 12 whitefly adults (approximately 3-5 day old) were introduced. The insects were collected using an aspirator and a Tygon® tubing connected to a barrier pipette tip. The tip, containing the collected insects, was then gently inserted into the soil containing the treated plant, allowing insects to crawl out of the tip to reach the foliage for feeding. The cups were covered with a reusable screened lid. Test plants were maintained in the holding room at about 25° C. and about 20-40% relative humidity for 3 days avoiding direct exposure to the fluorescent light (24 hour photoperiod) to prevent trapping of heat inside the cup. Mortality was assessed 3 days after treatment of the plants.

Assay [15] concerns Southern Armyworm (Spodoptera eridania), 2nd Instar Larvae. Kind of assay: CE.7 Southern armyworm, 2nd instar larvae, comparative test. Particulars: foliar, 96 h, leaf dip, at 4 days, read-out: % mortality in comparison to untreated controls. The protocol:
as §2
CE.7 Southern Armyworm (Spodoptera eridania), 2nd Instar Larvae
The active compounds were formulated in 50:50 acetone:water (vol) and 100 ppm Kinetica™ surfactant.
A pair of first true leaves of Sieva lima bean was dipped into the test solution and allowed to dry. The leaves were then placed in a plastic perforated zip enclosure bag and ten 2nd instar larvae were added. At 4 days, observations were made of mortality and reduced feeding.

A word on the mortality: it is the share of the test organisms that died. As for `CN1C(=O)CC(NC(=O)c2ccc(C3=NOC(c4ccc(F)c(Cl)c4)(C(F)(F)F)C3)c3c2CCC3)C1=O` (stereo not shown) [Compound I-1-11], the mortality at 500 ppm in assay [1] is > 75%. The mortality at 300 ppm in assay [2], in [3], in [7], in assay [8] and in assay [10] was > 75% each time. In addition, the mortality at 2500 ppm in assay [4], in assay [5], in [6] and in [9] was > 75% throughout. In [11], the mortality at 100 ppm is > 75%. Besides, the mortality at 0.1 ppm in assay [12] (0.1 ppm, contact activity, third-instar larvae sprayed) was 75%.

Turning to `O=C(NC1CCN(CC(F)(F)F)C1=O)c1ccc(C2=NOC(c3cc(Cl)c(F)c(Cl)c3)(C(F)(F)F)C2)c2c1CCC2` (stereo not shown) [Tab. 128, A-9 of WO 2015128358, reference compound], the mortality at 3 ppm in assay [13] and in assay [15] was 0% each time. The mortality at 10 ppm in assay [14] is 50%. Also, the mortality at 0.1 ppm in [12] was 0%.
